Marks after values point to notes of the source that are not given here.
Experiments:
Botrytis cinerea = assay: Test E: tomato botrytis, preventive spray on tomato seedlings
Septoria tritici = assay: Test J: wheat leaf blotch, preventive spray on wheat seedlings; assay type: in vivo
From the text: A dash (-) indicates no test results.

[1] = tested on: Erysiphe graminis f. sp. tritici; assay: Test L: wheat powdery mildew, preventive spray on wheat seedlings
Rhizoctonia oryzae = assay: Test G: turf brown patch, preventive spray on creeping bent grass seedlings
Method: (the causal agent of turf brown patch) and incubated in a saturated atmosphere at 27° C. for 24 h, and then moved to a growth chamber at 27° C. for 5 days, after which disease ratings were made.

Pythium aphanidermatum = assay: Test A: bluegrass pythium blight, preventive spray on bluegrass seedlings
Septoria nodorum = assay: Test H: wheat glum blotch, preventive spray on wheat seedlings
Method: (the causal agent of wheat glum blotch) and incubated in a saturated atmosphere at 20° C. for 48 h, and then moved to a growth chamber at 22° C. for 5 days, after which disease ratings were made.

Plasmopara viticola = assay: Test D: grape downy mildew, spray after inoculation of grape seedlings; assay type: in vivo
From the text: Upon removal, disease ratings were made. […] A dash (-) indicates no test results.

[2] = tested on: Puccinia recondita f. sp. tritici; assay: Test K: wheat leaf rust, preventive spray on wheat seedlings
[3] = tested on: Colletotrichum orbiculare; assay: Test B: cucumber Colletotrichum anthracnose, preventive spray on cucumber seedlings
Phytophthora infestans = assay: whole plant or invertebrate; assay type: in vivo
Sclerotinia sclerotiorum = assay: Test C: cucumber white mold, preventive spray on cucumber seedlings
[4] = 200 ppm, 100 = 100% disease control, 0 = no control
[5] = 40 ppm (marked *), 100 = 100% disease control, 0 = no control

Row | SMILES | Test E disease control rating (Botrytis cinerea; 40 ppm (*)) | Test J disease control rating (Septoria tritici; 40 ppm (*)) | Test L disease control rating ([1]; 40 ppm (*)) | Test G disease control rating (Rhizoctonia oryzae; 40 ppm (*)) | Test A disease control rating (Pythium aphanidermatum; 40 ppm (*)) | Test H disease control rating (Septoria nodorum; 40 ppm (*)) | Test D disease control rating (Plasmopara viticola; 40 ppm (*)) | Test K disease control rating ([2]; 40 ppm (*)) | Test B disease control rating ([3]; 40 ppm (*)) | Test F disease control rating (Phytophthora infestans; 40 ppm (*)) | Test C disease control rating (Sclerotinia sclerotiorum; 40 ppm (*)) | Test E disease control rating (Botrytis cinerea; 200 ppm) [%] | Test J disease control rating (Septoria tritici; 200 ppm) [%] | Test L disease control rating ([1]; 200 ppm) [%] | Test G disease control rating (Rhizoctonia oryzae; 200 ppm) [%] | Test A disease control rating (Pythium aphanidermatum; 200 ppm) [%] | Test H disease control rating (Septoria nodorum; 200 ppm) [%] | Test D disease control rating (Plasmopara viticola; 200 ppm) [%] | Test K disease control rating ([2]; 200 ppm) [%] | Test B disease control rating ([3]; 200 ppm) [%] | also measured
1 | COC=C(C)n1c(-c2c(F)cccc2F)c(Cl)nc(-n2cncn2)c1=O [compound 212] | 0* % | 0* % | 0* % | 0* % | 0* % | 0* % | 8* % | 0* % | 0* % | 0* % | 0* % | – | – | – | – | – | – | – | – | – | –
2 | Cc1cccnc1-c1nc(Cl)c(-c2c(F)cccc2F)n(CC(C)C)c1=O [compound 210] | – | – | – | – | – | – | – | – | – | – | – | 0 | 1 | 0 | 0 | 0 | 0 | 16 | 0 | 0 | Test F disease control rating (Phytophthora infestans; 200 ppm): 0%; Test C disease control rating (Sclerotinia sclerotiorum; 200 ppm): 0%
3 | CSCC(C)n1c(-c2c(F)cccc2F)c(Cl)nc(-n2cncn2)c1=O (stereo not shown) [compound 199] | 0* % | 1* % | 0* % | 0* % | 0* % | 0* % | 4* % | 0* % | 0* % | 0* % | 0* % | – | – | – | – | – | – | – | – | – | –
4 | CC(C)Cn1c(-c2cccc3c2OCO3)c(Cl)nc(-n2cccn2)c1=O [compound 251] | – | – | – | – | – | – | – | – | – | – | – | – | – | – | – | – | – | – | – | – | Test E disease control rating (Botrytis cinerea; [4]): 99%; Test J disease control rating (Septoria tritici; [4]): 97%; Test L disease control rating [1, 4]: 0%; Test G disease control rating (Rhizoctonia oryzae; [4]): 21%; Test A disease control rating (Pythium aphanidermatum; [4]): 0%; Test H disease control rating (Septoria nodorum; [4]): 82%; Test D disease control rating (Plasmopara viticola; [4]): 0%; Test K disease control rating [2, 4]: 17%; Test B disease control rating [3, 4]: 0%; Test F disease control rating (Phytophthora infestans; [4]): 0%; Test C disease control rating (Sclerotinia sclerotiorum; [4]): 0%
5 | CC(C)Cn1c(-c2cc(F)cc(F)c2F)c(Cl)nc(-n2cncn2)c1=O [compound 138] | – | – | – | – | – | – | – | – | – | – | – | – | – | – | – | – | – | – | – | – | Test E disease control rating (Botrytis cinerea; 100 ppm (#)): 83# %; Test J disease control rating (Septoria tritici; 100 ppm (#)): 46# %; Test L disease control rating ([1]; 100 ppm (#)): 0# %; Test G disease control rating (Rhizoctonia oryzae; 100 ppm (#)): 55# %; Test A disease control rating (Pythium aphanidermatum; 100 ppm (#)): 0# %; Test H disease control rating (Septoria nodorum; 100 ppm (#)): 0# %; Test D disease control rating (Plasmopara viticola; 100 ppm (#)): 12# %; Test K disease control rating ([2]; 100 ppm (#)): 0# %; Test B disease control rating ([3]; 100 ppm (#)): 0# %; Test F disease control rating (Phytophthora infestans; 100 ppm (#)): 0# %; Test C disease control rating (Sclerotinia sclerotiorum; 100 ppm (#)): 24# %
6 | COC=C(C)n1c(-c2c(F)cccc2F)c(Cl)nc(-n2cccn2)c1=O [compound 211] | 0* % | 25* % | 0* % | 0* % | 0* % | 0* % | 4* % | 27* % | 0* % | 0* % | 0* % | – | – | – | – | – | – | – | – | – | –
7 | CC(C)Cn1c(-c2cccc(C#N)c2)c(Cl)nc(-n2cccn2)c1=O [compound 250] | – | – | – | – | – | – | – | – | – | – | – | – | – | – | – | – | – | – | – | – | Test E disease control rating (Botrytis cinerea; [5]): 0* %; Test J disease control rating (Septoria tritici; [5]): 30* %; Test L disease control rating [1, 5]: 0* %; Test G disease control rating (Rhizoctonia oryzae; [5]): 0* %; Test A disease control rating (Pythium aphanidermatum; [5]): 0* %; Test H disease control rating (Septoria nodorum; [5]): 0* %; Test D disease control rating (Plasmopara viticola; [5]): 0* %; Test K disease control rating [2, 5]: 0* %; Test B disease control rating [3, 5]: 0* %; Test F disease control rating (Phytophthora infestans; [5]): 0* %; Test C disease control rating (Sclerotinia sclerotiorum; [5]): 0* %
8 | Cn1c(-c2c(F)cccc2F)c(Cl)nc(-n2cccn2)c1=O [compound 185] | 81* % | 8* % | 90* % | 0* % | 0* % | 0* % | 8* % | 0* % | 0* % | 0* % | 0* % | – | – | – | – | – | – | – | – | – | –
9 | CC(C)Cn1c(C(C)(C)C)c(Cl)nc(-n2cncn2)c1=O [compound 206] | – | – | – | – | – | – | – | – | – | – | – | 0 | 3 | 56 | 0 | 0 | 0 | 8 | 0 | 0 | Test F disease control rating (Phytophthora infestans; 200 ppm): 0%; Test C disease control rating (Sclerotinia sclerotiorum; 200 ppm): 0%
10 | CC(C)Cn1c(-c2c(F)cccc2F)c(Cl)nc(-c2ccncc2)c1=O [compound 84] | 0* % | 20* % | 0* % | 0* % | 0* % | 0* % | 5* % | 0* % | 0* % | 0* % | 0* % | – | – | – | – | – | – | – | – | – | –
11 | O=c1c(-n2cncn2)nc(Cl)c(-c2c(F)cccc2F)n1Cc1ccc(Cl)cc1 [compound 222] | 92* % | 86* % | 0* % | 0* % | 0* % | 60* % | 0* % | 79* % | 0* % | 0* % | 0* % | – | – | – | – | – | – | – | – | – | –
12 | Cc1cccc(C)c1-c1c(Cl)nc(-n2cncn2)c(=O)n1CC(C)C [compound 205] | – | – | – | – | – | – | – | – | – | – | – | 100 | 100 | 81 | 85 | 0 | 0 | 12 | 97 | 0 | Test F disease control rating (Phytophthora infestans; 200 ppm): 0%; Test C disease control rating (Sclerotinia sclerotiorum; 200 ppm): 0%
13 | CC(C)Cn1c(-c2ccccc2F)c(Cl)nc(-n2cncn2)c1=O [compound 175] | – | – | – | – | – | – | – | – | – | – | – | 99 | 98 | 92 | 91 | 0 | 99 | 12 | 60 | 0 | Test F disease control rating (Phytophthora infestans; 200 ppm): 0%; Test C disease control rating (Sclerotinia sclerotiorum; 200 ppm): 0%
14 | CC(C)Cn1c(-c2ccc(C#N)cc2)c(Cl)nc(-n2cccn2)c1=O [compound 145] | – | – | – | – | – | – | – | – | – | – | – | 99 | 100 | 0 | 40 | 0 | 0 | 20 | 68 | 0 | Test F disease control rating (Phytophthora infestans; 200 ppm): 0%; Test C disease control rating (Sclerotinia sclerotiorum; 200 ppm): 49%

Reference: US20080194585A1, “Fungicidal Pyrazine Derivatives” (priority 2005, published 2008)
